Reference: ChEMBL document CHEMBL1134554, “Design, synthesis, and structure-activity relationships of macrocyclic hydroxamic acids that inhibit tumor necrosis factor alpha release in vitro and in vivo” (J Med Chem, 2001)

What follows are compounds tested against Disintegrin and metalloproteinase domain-containing protein 17 (Homo sapiens, UniProt P78536).
Disintegrin and metalloproteinase domain-containing protein 17, sequence (P78536 whole entry, the tested form may be a part): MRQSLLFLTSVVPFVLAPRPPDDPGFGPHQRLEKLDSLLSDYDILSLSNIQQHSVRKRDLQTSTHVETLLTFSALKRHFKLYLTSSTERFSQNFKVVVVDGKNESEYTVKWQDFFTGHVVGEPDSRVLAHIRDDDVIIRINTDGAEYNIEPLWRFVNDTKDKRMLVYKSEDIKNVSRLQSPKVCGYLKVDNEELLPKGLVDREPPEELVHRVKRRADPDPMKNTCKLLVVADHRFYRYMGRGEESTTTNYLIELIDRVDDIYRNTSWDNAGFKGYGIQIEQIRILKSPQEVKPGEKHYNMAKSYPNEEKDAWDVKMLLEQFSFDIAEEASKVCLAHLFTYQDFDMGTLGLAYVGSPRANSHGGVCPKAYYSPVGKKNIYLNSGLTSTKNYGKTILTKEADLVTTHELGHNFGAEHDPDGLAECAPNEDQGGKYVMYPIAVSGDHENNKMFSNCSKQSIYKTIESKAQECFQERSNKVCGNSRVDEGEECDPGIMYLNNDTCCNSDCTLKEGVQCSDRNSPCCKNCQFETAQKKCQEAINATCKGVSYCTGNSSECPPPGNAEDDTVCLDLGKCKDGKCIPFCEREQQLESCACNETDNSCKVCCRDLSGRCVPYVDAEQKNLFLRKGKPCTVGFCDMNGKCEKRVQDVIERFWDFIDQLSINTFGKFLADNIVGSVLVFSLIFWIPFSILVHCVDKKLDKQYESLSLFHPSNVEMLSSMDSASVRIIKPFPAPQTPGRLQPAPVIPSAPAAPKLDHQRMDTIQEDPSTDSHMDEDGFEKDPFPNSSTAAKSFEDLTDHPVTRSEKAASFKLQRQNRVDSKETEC
Description: Inhibition of LPS-stimulated TNF-alpha release in human whole blood

Row | SMILES | IC50
1 | CC(C)C[C@H]1C(=O)N[C@H](C(=O)NCc2ccncc2)CCCCNC(=O)OCCC[C@@H]1C(=O)NO | 490 nM
2 | CNC(=O)[C@H](NC(=O)[C@@H]1Cc2ccc(cc2)OCCC[C@H](C(=O)NO)[C@@H](CC(C)C)C(=O)N1)C(C)C | 1510 nM
3 | CC(C)C[C@H]1C(=O)N[C@H](C(=O)NCc2ccccn2)CCCCNC(=O)OCCC[C@@H]1C(=O)NO | 700 nM
4 | CC(C)C[C@H]1C(=O)N[C@H](C(=O)NCC(=O)Nc2ccc(F)cc2F)Cc2ccc(cc2)OCCC[C@@H]1C(=O)NO | 700 nM
5 | CC(C)C[C@H]1C(=O)N[C@H](C(=O)Nc2ccccc2)CCCCNC(=O)OCCC[C@@H]1C(=O)NO | 280 nM
6 | CC(C)C[C@H]1C(=O)N[C@H](C(=O)Nc2ccc(N3CCOCC3)cc2)CCCCNC(=O)OCCC[C@@H]1C(=O)NO | 190 nM
7 | CC(C)C[C@H]1C(=O)N[C@H](C(=O)NCC(=O)N2CCN(c3ccccc3)CC2)CCCCNC(=O)OCCC[C@@H]1C(=O)NO | 70 nM
8 | CC(C)C[C@H]1C(=O)N[C@H](C(=O)Nc2ccncc2)CCCCN(C)C(=O)OCCC[C@@H]1C(=O)NO | 500 nM
9 | CNC(=O)[C@@H](Cc1ccc(OC)cc1)NC(=O)[C@@H]1Cc2ccc(cc2)OCCC[C@H](C(=O)NO)[C@@H](CC(C)C)C(=O)N1 | 850 nM
10 | CC(C)C[C@H]1C(=O)N[C@H](C(=O)NCCc2ccc(S(N)(=O)=O)cc2)Cc2ccc(cc2)OCCC[C@@H]1C(=O)NO | 1000 nM
11 | CC(C)C[C@H]1C(=O)N[C@H](C(=O)NCCC(=O)N2CCOCC2)CCCCNC(=O)OCCC[C@@H]1C(=O)NO | 170 nM
12 | CNC(=O)[C@@H]1CCCCNC(=O)CO[C@H](C(=O)NO)[C@@H](CC(C)C)C(=O)N1 | 6500 nM
13 | COc1ccc2c(CCNC(=O)[C@@H]3CCCCNC(=O)OCCC[C@H](C(=O)NO)[C@@H](CC(C)C)C(=O)N3)c[nH]c2c1 | 94 nM
14 | CC(C)C[C@H]1C(=O)N[C@H](C(=O)NCC(=O)N2CCCCC2)Cc2ccc(cc2)OCCC[C@@H]1C(=O)NO | 140 nM
15 | CCCCCC[C@H]1C(=O)N[C@H](C(=O)NCc2ccccc2)Cc2ccc(cc2)OCCC[C@@H]1C(=O)NO | 2200 nM
16 | COC(=O)c1csc(NC(=O)[C@@H]2CCCCNC(=O)OCCC[C@H](C(=O)NO)[C@@H](CC(C)C)C(=O)N2)n1 | 83 nM
17 | CC(C)C[C@H]1C(=O)N[C@H](C(=O)N[C@H](CO)C(=O)N2CCOCC2)CCCCNC(=O)OCCC[C@@H]1C(=O)NO | 100 nM
18 | CC(C)C[C@H]1C(=O)N[C@H](C(=O)NCC(=O)N2CCCC(C)(C)C2)Cc2ccc(cc2)OCCC[C@@H]1C(=O)NO | 460 nM
19 | CC(C)C[C@H]1C(=O)N[C@H](C(=O)Nc2ccccn2)CCCCN(C)C(=O)OCCC[C@@H]1C(=O)NO | 200 nM
20 | CCOC(=O)N1CCC(NC(=O)[C@@H]2CCCCNC(=O)OCCC[C@H](C(=O)NO)[C@@H](CC(C)C)C(=O)N2)CC1 | 130 nM
21 | CC(C)C[C@H]1C(=O)N[C@H](C(=O)NCc2cccnc2)CCCCNC(=O)OCCC[C@@H]1C(=O)NO | 500 nM
22 | COc1ccc2[nH]cc(CCNC(=O)[C@@H]3CCCCNC(=O)OCCC[C@H](C(=O)NO)[C@@H](CC(C)C)C(=O)N3)c2c1 | 490 nM
23 | CNC(=O)[C@@H]1Cc2ccc(cc2)OCCC[C@H](C(=O)NO)[C@@H](CC(C)C)C(=O)N1 | 1200 nM
24 | Cc1csc(NC(=O)[C@@H]2CCCCN(C)C(=O)OCCC[C@H](C(=O)NO)[C@@H](CC(C)C)C(=O)N2)n1 | 300 nM
25 | CNC(=O)[C@@H]1CCCCN(S(=O)(=O)c2ccccc2)CCC[C@H](C(=O)NO)[C@@H](CC(C)C)C(=O)N1 | 1300 nM
26 | CNC(=O)[C@@H](CCCCN)NC(=O)[C@@H]1Cc2ccc(cc2)OCCC[C@H](C(=O)NO)[C@@H](CC(C)C)C(=O)N1 | 830 nM
27 | CC(C)C[C@H]1C(=O)N[C@H](C(=O)NCC(=O)Nc2cccc3c2Cc2ccccc2-3)Cc2ccc(cc2)OCCC[C@@H]1C(=O)NO | 930 nM

Row | SMILES | IC50
28 | CC(C)C[C@H]1C(=O)N[C@H](C(=O)NCCc2ccccc2O)CCCCNC(=O)OCCC[C@@H]1C(=O)NO | 85 nM
29 | CC(C)C[C@H]1C(=O)N[C@H](C(=O)NCC(=O)NCC(F)(F)F)Cc2ccc(cc2)OCCC[C@@H]1C(=O)NO | 240 nM
30 | CC(C)C[C@H]1C(=O)N[C@H](C(=O)NCCc2c[nH]c3ccc(F)cc23)CCCCNC(=O)OCCC[C@@H]1C(=O)NO | 130 nM
31 | CNC(=O)CNC(=O)[C@@H]1CCCCNC(=O)OCCC[C@H](C(=O)NO)[C@@H](CC(C)C)C(=O)N1 | 120 nM
32 | CNC(=O)[C@@H](CC(C)C)NC(=O)[C@@H]1CCCCNC(=O)OCCC[C@H](C(=O)NO)[C@@H](CC(C)C)C(=O)N1 | 100 nM
33 | CC(C)C[C@H]1C(=O)N[C@H](C(=O)N[C@H]2c3ccccc3C[C@H]2O)CCCCNC(=O)OCCC[C@@H]1C(=O)NO | 400 nM
34 | CC(C)C[C@H]1C(=O)N[C@H](C(=O)NC[C@@H]2CCCO2)CCCCNC(=O)OCCC[C@@H]1C(=O)NO | 260 nM
35 | Cc1ccc2[nH]cc(CCNC(=O)[C@@H]3CCCCNC(=O)OCCC[C@H](C(=O)NO)[C@@H](CC(C)C)C(=O)N3)c2c1 | 1170 nM
36 | CCOC(=O)N1CCN(C(=O)CNC(=O)[C@@H]2CCCCN(C)C(=O)OCCC[C@H](C(=O)NO)[C@@H](CC(C)C)C(=O)N2)CC1 | 600 nM
37 | CNC(=O)[C@@H]1CCCCNCCC[C@H](C(=O)NO)[C@@H](CC(C)C)C(=O)N1 | 2700 nM
38 | CC(C)C[C@H]1C(=O)N[C@H](C(=O)NCc2ccccc2)CCCCNC(=O)OCCC[C@@H]1C(=O)NO | 740 nM
39 | CC(C)C[C@H]1C(=O)N[C@H](C(=O)NCC(=O)N2CCC(O)CC2)CCCCNC(=O)OCCC[C@@H]1C(=O)NO | 280 nM
40 | CC(C)C[C@H]1C(=O)N[C@H](C(=O)NCC(=O)N2CCC(C(=O)O)CC2)CCCCNC(=O)OCCC[C@@H]1C(=O)NO | 220 nM
41 | CNC(=O)[C@@H](CCCCNC(=O)OC(C)(C)C)NC(=O)[C@@H]1CCCCNC(=O)OCCC[C@H](C(=O)NO)[C@@H](CC(C)C)C(=O)N1 | 210 nM
42 | CCCCCC[C@H]1C(=O)N[C@H](C(=O)NCC(=O)NC)Cc2ccc(cc2)OCCC[C@@H]1C(=O)NO | 550 nM
43 | CC(C)C[C@H]1C(=O)N[C@H](C(=O)N[C@@H]2c3ccccc3C[C@@H]2O)CCCCNC(=O)OCCC[C@@H]1C(=O)NO | 110 nM
44 | CNC(=O)[C@@H]1CCCCN(C(=O)OC(C)(C)C)CCC[C@H](C(=O)NO)[C@@H](CC(C)C)C(=O)N1 | 1400 nM
45 | CNC(=O)[C@@H](COC(C)(C)C)NC(=O)[C@@H]1Cc2ccc(cc2)OCCC[C@H](C(=O)NO)[C@@H](CC(C)C)C(=O)N1 | 950 nM
46 | CNC(=O)[C@H](C)NC(=O)[C@@H]1Cc2ccc(cc2)OCCC[C@H](C(=O)NO)[C@@H](CC(C)C)C(=O)N1 | 4490 nM
47 | CNC(=O)[C@@H](CCCCN)NC(=O)[C@@H]1CCCCNC(=O)OCCC[C@H](C(=O)NO)[C@@H](CC(C)C)C(=O)N1 | 690 nM
48 | CC(C)C[C@H]1C(=O)N[C@H](C(=O)NCC(=O)Nc2ccccn2)CCCCN(C)C(=O)OCCC[C@@H]1C(=O)NO | 200 nM
49 | CNC(=O)CNC(=O)[C@@H]1CCCCN(C)C(=O)OCCC[C@H](C(=O)NO)[C@@H](CC(C)C)C(=O)N1 | 420 nM
50 | CC(C)C[C@H]1C(=O)N[C@H](C(=O)NC[C@H]2CCCO2)CCCCNC(=O)OCCC[C@@H]1C(=O)NO | 980 nM
51 | CC(C)C[C@H]1C(=O)N[C@H](C(=O)NC(C)C)Cc2ccc(cc2)OCCC[C@@H]1C(=O)NO | 700 nM
52 | CNC(=O)[C@H](NC(=O)[C@@H]1CCCCNC(=O)OCCC[C@H](C(=O)NO)[C@@H](CC(C)C)C(=O)N1)C(C)(C)C | 1200 nM
53 | CC(C)C[C@H]1C(=O)N[C@H](C(=O)NCCc2ccccn2)CCCCNC(=O)OCCC[C@@H]1C(=O)NO | 390 nM
